According to patent US20250223281A1, “ANTIDIABETIC COMPOUNDS AND COMPOSITIONS” (REZUBIO PHARMACEUTICALS CO., LTD, priority 2022, published 2025):

Target: T1, GPR40 (Homo sapiens, UniProt O14842)
T1 construct: expressed in transfected cells; host or cells: HEK293 cells stably expressing GPR40 (Hygromycin selection)
Assay: IP1 accumulation assay in HEK293 cells stably expressing GPR40
Assay type: cell-based
Protocol: IP1 accumulation assay was used to evaluate the potency of compounds. HEK293 cells stably expressing GPR40 were cultured in 5% CO2 incubator (ThermoFisher) in maintenance media (Dulbecco's modified Eagle's medium with 4.5 g/L of glucose, 10% fetal bovine serum, 100 μg/mL Hygromycin, and Penicillin (100 U/mL)/Streptomycin (100 μg/mL)) till 100% confluency. Cells were harvested freshly, spun down at 300×g for 5 min, and resuspended in pre-warmed 1× stimulant buffer from Cisbio IP-One HTRF Detection kit (Cisbio). Cell density was adjusted to 2.0×10^6 cells/mL. DMSO was used as blank control and AMG-1638 (CAS #: 1142214-62-7) as positive control. Compounds were prepared at 10 mM in DMSO and 5 nL of 3× serially diluted compounds (10 concentrations) were added to each well of the 384-LDV assay plate (Corning) by using ECHO 550 (Labcyte). Five μL of cells in suspension were transferred into each well by using Multidrop Combi Reagent Dispenser (ThermoFisher). Assay plate was then sealed and incubated at 37° C. for 2 hours. IP-d2 reagent and anti-IP1 reagent were prepared following the manual (Cisbio). Five μL of IP1-d2 and then 5 μL of anti-IP1 antibody was added to each well sequentially. Assay plate was incubated at room temperature for 60 min and then read at 665 nm/615 nm on an Envision plate reader (PerkinElmer). The ratio of values obtained at 665 nm and 615 nm was used for calculation of IP1 accumulation: % Effect=(Ratiosample−Ratioblank)/(RatioAMG-1638−Ratioblank)×100. Dose curve was fitted and EC50 of each compound was calculated by using XLFit.

[1] = IP1 accumulation, HEK293 cells stably expressing GPR40, 2 hours at 37° C., % effect relative to AMG-1638, table of Biological Example 1
[2] = Table A-8 (additional examples), obtained by methods of Biological Example 1
[3] = Tables A-1a to A-7b (structure-property relationship), obtained by methods of Biological Example 1

T1 sequence (O14842 whole entry): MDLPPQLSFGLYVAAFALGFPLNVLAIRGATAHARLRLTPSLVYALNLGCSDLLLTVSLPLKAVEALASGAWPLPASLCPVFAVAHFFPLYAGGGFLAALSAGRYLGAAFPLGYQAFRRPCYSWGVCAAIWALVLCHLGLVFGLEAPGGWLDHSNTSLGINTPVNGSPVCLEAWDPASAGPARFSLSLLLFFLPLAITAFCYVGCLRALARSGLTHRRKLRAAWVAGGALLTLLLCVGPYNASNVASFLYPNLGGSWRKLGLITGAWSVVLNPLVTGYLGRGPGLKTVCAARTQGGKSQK

Structure (SMILES) | EC50 [1] [nM] | EC50 [2] [nM] | EC50 [3] [nM]
C[C@H](C(=O)O)[C@H](c1ccc2c(c1)O[C@@H](C1CCN(Cc3cc(-n4cc(CCCCCCCCCCCCC(=O)NCCN(CCC(=O)NCCN)CCC(=O)NCCN)nn4)ccc3OC(F)(F)F)CC1)CC2)C1CC1 [Example 1, (2S,3R)-3-((R)-2-(1-(5-(4-(13-((2-(bis(3-((2-aminoethyl)amino)-3-oxopropyl)amino)ethyl)amino)-13-oxotridecyl)-1H-1,2,3-triazol-1-yl)-2-(trifluoromethoxy)benzyl)piperidin-4-yl)chroman-7-yl)-3-cyclopropyl-2-methylpropanoic acid] | 5.46 | 5.46 | 5.46
C[C@H](C(=O)O)[C@H](c1ccc2c(c1)O[C@@H](C1CCN(Cc3cc(-n4cc(CCCCCCCCCCCCC(=O)NCC[N+](C)(CCC(=O)NCCN)CCC(=O)NCCN)nn4)ccc3OC(F)(F)F)CC1)CC2)C1CC1 [Example 2] | 9.46 | 9.46 | 9.46
C[C@H](C(=O)O)[C@H](c1ccc2c(c1)O[C@@H](C1CCN(Cc3cc(-n4cc(CCCCCCCCCCCCCCCCCC(=O)NCCN(CCC(=O)NCCN)CCC(=O)NCCN)nn4)ccc3OC(F)(F)F)CC1)CC2)C1CC1 [Example 3] | 1.1 |  | 1.1
C[C@H](C(=O)O)[C@H](c1ccc2c(c1)O[C@@H](C1CCN(Cc3cc(-n4cc(CCCCCCCCCCCCCCCCCC(=O)NCC[N+](C)(CCC(=O)NCCN)CCC(=O)NCCN)nn4)ccc3OC(F)(F)F)CC1)CC2)C1CC1 [Example 4] | 0.31 |  | 0.31
C[C@H](C(=O)O)[C@H](c1ccc2c(c1)O[C@@H](C1CCN(Cc3cc(-c4cn(CCCCCCCCCCCCCC(=O)NCCN(CCC(=O)NCCN)CCC(=O)NCCN)nn4)ccc3OC(F)(F)F)CC1)CC2)C1CC1 [Example 5] | 15.2 |  | 15.2
C[C@H](C(=O)O)[C@H](c1ccc2c(c1)O[C@@H](C1CCN(Cc3cc(-c4cn(CCCCCCCCCCCCCCCCCC(=O)NCCN(CCC(=O)NCCN)CCC(=O)NCCN)nn4)ccc3OC(F)(F)F)CC1)CC2)C1CC1 [Example 6] | 1.21 |  | 1.21
C[C@H](C(=O)O)[C@H](c1ccc2c(c1)O[C@@H](C1CCN(Cc3cc(-c4cn(CCCCCCCCCCCCCCCCCC(=O)NCC[N+](C)(CCC(=O)NCCN)CCC(=O)NCCN)nn4)ccc3OC(F)(F)F)CC1)CC2)C1CC1 [Example 7] | 0.65 |  | 0.65
COc1ccc(F)c(-c2ccc(COc3cccc([C@@H](CC(=O)O)C4CC4)c3)cc2C(C)(C)c2cn(CCCCCCCCCCCCCC(=O)NCCN(CCC(=O)NCCN)CCC(=O)NCCN)nn2)c1 [Example 8] | > 1000 |  | 
COc1ccc(F)c(-c2ccc(COc3cccc([C@@H](CC(=O)O)C4CC4)c3)cc2C(C)(C)c2cn(CCCCCCCCCCCCCC(=O)NCC[N+](C)(CCC(=O)NCCN)CCC(=O)NCCN)nn2)c1 [Example 9] | 640 |  | 
COc1ccc(F)c(-c2ccc(COc3cccc([C@@H](CC(=O)O)C4CC4)c3)cc2C(C)(C)c2cn(CCCCCCCCCCCCCCCCCC(=O)NCCN(CCC(=O)NCCN)CCC(=O)NCCN)nn2)c1 [Example 10] | 32.7 |  | 
COc1ccc(F)c(-c2ccc(COc3cccc([C@@H](CC(=O)O)C4CC4)c3)cc2C(C)(C)c2cn(CCCCCCCCCCCCCCCCCC(=O)NCC[N+](C)(CCC(=O)NCCN)CCC(=O)NCCN)nn2)c1 [Example 11] | 20.3 |  | 
COc1ccc(F)c(-c2ccc(COc3cccc([C@@H](CC(=O)O)C4CC4)c3)cc2C(OCCCCCn2cc(CCCCCCCCCCCCCCCCCC(=O)NCCN(CCC(=O)NCCN)CCC(=O)NCCN)nn2)C(C)(C)C)c1 (stereo partly shown) [Example 12] | 1.12 |  | 
COc1ccc(F)c(-c2ccc(COc3cccc([C@@H](CC(=O)O)C4CC4)c3)cc2C(OC)C(C)(C)Cn2cc(CCCCCCCCCCCCCCCCCC(=O)NCCN(CCC(=O)NCCN)CCC(=O)NCCN)nn2)c1 (stereo partly shown) [Example 14] | 8.8 |  | 
COc1ccc(F)c(-c2ccc(COc3cccc([C@@H](CC(=O)O)C4CC4)c3)cc2C(OC)C(C)(C)Cn2cc(CCCCCCCCCCCCCCCCCC(=O)NCC[N+](C)(CCC(=O)NCCN)CCC(=O)NCCN)nn2)c1 (stereo partly shown) [Example 15] | 58.4 |  | 
COc1ccc(F)c(-c2ccc(COc3cccc([C@@H](CC(=O)O)C4CC4)c3)cc2CC(C)(C)Cn2cc(CCCCCCCCCCCCC(=O)NCCN(CCC(=O)NCCN)CCC(=O)NCCN)nn2)c1 [Example 16] | 460 | 706 | 460
COc1ccc(F)c(-c2ccc(COc3cccc([C@@H](CC(=O)O)C4CC4)c3)cc2CC(C)(C)Cn2cc(CCCCCCCCCCCCC(=O)NCC[N+](C)(CCC(=O)NCCN)CCC(=O)NCCN)nn2)c1 [Example 17] | 152 | 169 | 152
COc1ccc(F)c(-c2ccc(COc3cccc([C@@H](CC(=O)O)C4CC4)c3)cc2CC(C)(C)Cn2cc(CCCCCCCCCCCCCCCCCC(=O)NCCN(CCC(=O)NCCN)CCC(=O)NCCN)nn2)c1 [Example 18] | 2.25 |  | 2.25

Structure (SMILES) | EC50 [1] [nM] | EC50 [2] [nM] | EC50 [3] [nM]
COc1ccc(F)c(-c2ccc(COc3cccc([C@@H](CC(=O)O)C4CC4)c3)cc2CC(C)(C)Cn2cc(CCCCCCCCCCCCCCCCCC(=O)NCC[N+](C)(CCC(=O)NCCN)CCC(=O)NCCN)nn2)c1 [Example 19] | 1.66 |  | 1.66
COc1ccc(F)c(-c2ccc(COc3cccc([C@@H](CC(=O)O)C4CC4)c3)cc2CC(C)(C)Cc2cn(CCCCCCCCCCCCCC(=O)NCCN(CCC(=O)NCCN)CCC(=O)NCCN)nn2)c1 [Example 21] | 49.4 |  | 49
COc1ccc(F)c(-c2ccc(COc3cccc([C@@H](CC(=O)O)C4CC4)c3)cc2CC(C)(C)Cc2cn(CCCCCCCCCCCCCC(=O)NCC[N+](C)(CCC(=O)NCCN)CCC(=O)NCCN)nn2)c1 [Example 22] | 49 |  | 49
COc1ccc(F)c(-c2ccc(COc3cccc([C@@H](CC(=O)O)C4CC4)c3)cc2CC(C)(C)Cc2cn(CCCCCCCCCCCCCCCCCC(=O)NCCN(CCC(=O)NCCN)CCC(=O)NCCN)nn2)c1 [Example 23] | 0.96 |  | 0.96
COc1ccc(F)c(-c2ccc(COc3cccc([C@@H](CC(=O)O)C4CC4)c3)cc2CC(C)(C)Cc2cn(CCCCCCCCCCCCCCCCCC(=O)NCC[N+](C)(CCC(=O)NCCN)CCC(=O)NCCN)nn2)c1 [Example 24] | 2.04 |  | 2.04
COc1ccc(F)c(-c2ccc(COc3cccc([C@@H](CC(=O)O)C4CC4)c3)cc2OC(C)(C)COCc2cn(CCCCCCCCCCCCCC(=O)NCCN(CCC(=O)NCCN)CCC(=O)NCCN)nn2)c1 [Example 25] | 132 |  | 
COc1ccc(F)c(-c2ccc(COc3cccc([C@@H](CC(=O)O)C4CC4)c3)cc2OC(C)(C)COCc2cn(CCCCCCCCCCCCCC(=O)NCC[N+](C)(CCC(=O)NCCN)CCC(=O)NCCN)nn2)c1 [Example 26] | 75.8 |  | 
COc1ccc(F)c(-c2ccc(COc3cccc([C@@H](CC(=O)O)C4CC4)c3)cc2OC(C)(C)COCc2cn(CCCCCCCCCCCCCCCCCC(=O)NCCN(CCC(=O)NCCN)CCC(=O)NCCN)nn2)c1 [Example 27] | 5.32 |  | 
COc1ccc(F)c(-c2ccc(COc3cccc([C@@H](CC(=O)O)C4CC4)c3)cc2OC(C)(C)COCc2cn(CCCCCCCCCCCCCCCCCC(=O)NCC[N+](C)(CCC(=O)NCCN)CCC(=O)NCCN)nn2)c1 [Example 28] | 4.77 |  | 
COc1ccc(F)c(-c2ccc(COc3cccc([C@@H](CC(=O)O)C4CC4)c3)cc2OC(C)(C)Cn2cc(CCCCCCCCCCCCC(=O)NCCN(CCC(=O)NCCN)CCC(=O)NCCN)nn2)c1 [Example 29] | > 1000 |  | 
COc1ccc(F)c(-c2ccc(COc3cccc([C@@H](CC(=O)O)C4CC4)c3)cc2OC(C)(C)Cn2cc(CCCCCCCCCCCCC(=O)NCC[N+](C)(CCC(=O)NCCN)CCC(=O)NCCN)nn2)c1 [Example 30] | 298 |  | 
COc1ccc(F)c(-c2ccc(COc3cccc([C@@H](CC(=O)O)C4CC4)c3)cc2OC(C)(C)Cn2cc(CCCCCCCCCCCCCCCCCC(=O)NCCN(CCC(=O)NCCN)CCC(=O)NCCN)nn2)c1 [Example 31] | 2.28 |  | 
COc1ccc(F)c(-c2ccc(COc3cccc([C@@H](CC(=O)O)C4CC4)c3)cc2OC(C)(C)Cn2cc(CCCCCCCCCCCCCCCCCC(=O)NCC[N+](C)(CCC(=O)NCCN)CCC(=O)NCCN)nn2)c1 [Example 32] | 1.98 |  | 
COc1ccc(F)c(-c2ccc(COc3cccc([C@@H](CC(=O)O)C4CC4)c3)cc2C(OCCCCCn2cc(CCCCCCCCCCCCC(=O)NCCN(CCC(=O)NCCN)CCC(=O)NCCN)nn2)C(C)(C)C)c1 (stereo partly shown) [Example 33] | 36.8 |  | 
COc1ccc(F)c(-c2ccc(COc3cccc([C@@H](CC(=O)O)C4CC4)c3)cc2C(OCCCCCn2cc(CCCCCCCCCCCCC(=O)NCC[N+](C)(CCC(=O)NCCN)CCC(=O)NCCN)nn2)C(C)(C)C)c1 (stereo partly shown) [Example 34] | 1.91 |  | 
C[C@H](C(=O)O)[C@H](c1ccc2c(c1)O[C@@H](C1CCN(Cc3cc(-c4cn(CCCCCCCCCCCCCCCCCC(=O)NCC[N+](C)(C)C)nn4)ccc3OC(F)(F)F)CC1)CC2)C1CC1 [Example 35] | 1.18 |  | 
